Reference: US9162010B2, “Drug eluting cochlear implants” (Tepha, Inc., priority 2010, dated 2015)

Experiments:
NIH-3T3 fibroblasts = test: Neutral Red assay of NIH-3T3 fibroblast viability; format: cell-based; conditions: for impact on viability of NIH-3T3 cells: concentrations between 10^-12 and 10^-6 mol/L; for effect on NIH-3T3 cell viability: drug at concentrations between 10^-12 and 10^-4 mol/L, relative to control (no drug), 48 hours
Protocol: Cell survival and viability of NIH-3T3 fibroblasts were measured using a Neutral Red Assay. NIH-3T3 fibroblasts were seeded into 96-well cell culture plates at a density of 10^4 cells/well in Dulbecco's Modified Eagle's Medium supplemented with 10% fetal calf serum. After 48 hours, cells were stained using a Neutral Red Assay. Neutral red is taken up only by living cells.
After incubation for 3 hours and several washing steps, cells were permeabilized and the neutral red solubilized in the supernatant. The absorption measured at 570 nm is proportional to the number of living cells. Measurements were run in quintuplicate and results were averaged. The experiment was repeated at least four times.
(§1) Discs (0.1 mm thick and 6 mm in diameter) of poly(L-lactide) (PLLA, Resomer L214, Boehringer Ingelheim Pharma GmbH & Co. KG, Ingelheim, Germany), poly(4-hydroxybutyrate) (P(4HB), Tepha, Inc., Lexington, Mass., USA) and silicone were placed at the bottom of standard 96-well tissue culture plates. Microtiter plates without material additions served as controls. Cells were seeded into each of the different cell culture wells and the assays were carried out as described above in Examples 1 and 2. For absorption measurements when using NIH-3T3 cells and neutral red test, the supernatant of all wells was transferred into new wells after permeabilization of the cells. Surviving spiral ganglion cells were stained directly on the polymer discs and counted.
The NIH-3T3 fibroblasts were cultured and assayed with Neutral Red according to Example 1, except that dexamethasone or sirolimus were added to the cell culture at concentrations between 10^−12 and 10^−4 mol/L. The percentage of viable NIH-3T3 cells was assayed relative to the control (no drug) and the results are shown in FIGS. 2 (dexamethasone) and 3 (sirolimus).

spiral ganglion cells = test: Spiral ganglion cell survival by anti-neurofilament antibody staining and microscopic counting; format: cell-based, Sprague-Dawley rats; conditions: for impact on viability of SGC: concentrations between 10^-12 and 10^-6 mol/L; for viability (survival) of spiral ganglion cells at high concentration: concentration of 10^-5 mol/L (FIG. 3)
Protocol: Spiral ganglion cells were freshly isolated from Sprague-Dawley rats (p3-5). Viable cells were suspended in Dulbecco's Modified Eagle's Medium supplemented with 10% fetal calf serum and 50 ng/ml BDNF and were seeded onto laminin- and ornithin-coated cell culture plates at a density of 1.5×10^4 cells/well. After a cultivation time of 48 hours, cells were stained with anti-neurofilament antibody and counted under a microscope. All experiments were performed in quadruplicate and the experiment was repeated four times.
as §1

Row | SMILES | impact on viability of NIH-3T3 cells (NIH-3T3 fibroblasts) | effect on NIH-3T3 cell viability (NIH-3T3 fibroblasts) | increase of spiral ganglion cell viability (spiral ganglion cells; concentrations between 10^-11 to 10^-7 mol/L (FIG. 2)) [%] | impact on viability of SGC (spiral ganglion cells) | effect on spiral ganglion cell viability (spiral ganglion cells; drug at concentrations between 10^-12 and 10^-4 mol/L, relative to control (no drug), 48 hours) | viability (survival) of spiral ganglion cells at high concentration (spiral ganglion cells) | viability (survival) of spiral ganglion cells at high concentration (spiral ganglion cells; listed as Sirolimus)
1 | C[C@@H]1C[C@H]2[C@@H]3CCC4=CC(=O)C=C[C@]4(C)[C@@]3(F)[C@@H](O)C[C@]2(C)[C@@]1(O)C(=O)CO [dexamethasone] | do not have an adverse impact | no toxic effects | ~20 | do not have an adverse impact | no toxic effects | – | –
2 | CO[C@H]1C[C@@H]2CC[C@@H](C)[C@@](O)(O2)C(=O)C(=O)N2CCCC[C@H]2C(=O)O[C@H]([C@H](C)C[C@@H]2CC[C@@H](O)[C@H](OC)C2)CC(=O)[C@H](C)/C=C(\C)[C@@H](O)[C@@H](OC)C(=O)[C@H](C)C[C@H](C)/C=C/C=C/C=C/1C [sirolimus] | do not have an adverse impact | only a small decrease | – | do not have an adverse impact | – | reduced | substantially reduced
